Assay results taken from article PMC11456921 (RSC Advances, 2024).
pIC50: −log10 of the molar value. Values after ≈ are worked out from the molar mass of the structure shown.

What was measured:
[1] = system: HEp-2 human laryngeal carcinoma cell line; assay: In vitro anti-proliferative assay, SRB method, HEp-2; format: cell-based; details: for IC50: Homo sapiens, HEp-2, 48 h, read-out: IC50 against HEp-2; for HEp-2 (% inhibition): single concentration 100 μg mL^−1, 48 h, SRB, mean ± SD
GSK3β = GSK3β (Homo sapiens, UniProt P49841); format: biochemical
Chain of GSK3β (P49841 whole entry): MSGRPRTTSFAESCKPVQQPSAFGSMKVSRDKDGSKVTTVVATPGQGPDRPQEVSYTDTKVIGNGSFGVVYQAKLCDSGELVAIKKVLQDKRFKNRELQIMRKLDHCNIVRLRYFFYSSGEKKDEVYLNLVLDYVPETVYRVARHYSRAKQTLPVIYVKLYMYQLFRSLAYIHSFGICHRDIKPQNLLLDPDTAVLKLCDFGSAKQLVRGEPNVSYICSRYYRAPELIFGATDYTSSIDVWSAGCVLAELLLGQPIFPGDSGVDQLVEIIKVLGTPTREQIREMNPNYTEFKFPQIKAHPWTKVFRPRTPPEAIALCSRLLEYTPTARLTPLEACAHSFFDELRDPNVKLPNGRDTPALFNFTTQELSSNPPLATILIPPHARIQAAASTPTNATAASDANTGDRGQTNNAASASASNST

CDK2/cyclin A = CDK2/cyclin A (Homo sapiens, UniProt P24941); format: biochemical
[2] = system: MCF-7 human breast carcinoma cell line; assay: In vitro anti-proliferative assay, sulforhodamine-B; format: cell-based; details: single concentration 100 μg mL^−1, 48 h, SRB; mean ± SD
HEp-2 cells [3] = assay: Total nitrate/nitrite; format: cell-based, human; details: HEp-2, treated with IC50 for 48 h
[4] = system: Vero normal African green monkey kidney cell line; assay: In vitro anti-proliferative assay, SRB method, normal Vero cells; format: cell-based; details: single concentration 100 μg mL^−1, 48 h, mean ± SD
HEp-2 cells [5] = assay: Reduced glutathione; format: cell-based, human; details: HEp-2, treated with IC50 for 48 h
[6] = system: HepG2 human hepatocellular carcinoma cell line; assay: In vitro anti-proliferative assay, SRB method, HepG2; format: cell-based
HepG2 cells [7] = assay: Total nitrate/nitrite; format: cell-based, human; details: HepG2, treated with IC50 for 48 h
HepG2 cells [8] = assay: Apoptosis detection, annexin V-FITC/PI flow cytometry; format: cell-based, human; details: HepG2, 9.5 μg mL^−1 (IC50), 24 h; DMSO control 1.18%
HepG2 cells [9] = assay: Reduced glutathione; format: cell-based, human; details: HepG2, treated with IC50 for 48 h
HepG2 cells [10] = assay: Cell cycle analysis by flow cytometry; format: cell-based, human; details: HepG2, 9.5 μg mL^−1 (IC50), 24 h

## C/C(=N\NC(N)=S)c1ccccn1 [1a, (E)-2-(1-(pyridin-2-yl)ethylidene)hydrazine-1-carbothioamide]
[1]
  IC50: 7.5 µg/mL (≈ 38.6 µM)
  HEp-2 (% inhibition): 79.91 ± 0.7%
GSK3β
  pIC50: 5.65
GSK3β; from IC50 values of Table 2
  GSK3β inhibitory activity compared with CHIR-99021: the reference drug showing nearly six times its inhibitory activity
CDK2/cyclin A
  pIC50: 4.78
CDK2/cyclin A; from IC50 values of Table 2
  Roscovitine inhibitory activity against CDK2/cyclin A relative to the compound: more than 3.5 times

## CCn1c(C)c(C(C)=O)s/c1=N/N=C(\C)c1ccccn1 [3b, 1-((E)-3-Ethyl-4-methyl-2-(((E)-1-(pyridin-2-yl)ethylidene)hydrazono)-2,3-dihydrothiazol-5-yl)ethan-1-one]
[2]
  MCF-7 (% inhibition): 73.52 ± 1.6%

## C/C(=N\N=C1/NC(=O)C(C)S1)c1ccccn1 (stereo not shown) [7a, (E)-5-Methyl-2-(((E)-1-(pyridin-2-yl)ethylidene)hydrazono)thiazolidin-4-one]
[2]
  MCF-7 (% inhibition): 72.79 ± 1.3%

## CC(=O)C1S/C(=N/N=C(\C)c2ccccn2)NC1=O (stereo not shown) [8a, (E)-5-Acetyl-2-(((E)-1-(pyridin-2-yl)ethylidene)hydrazono)thiazolidin-4-one]
[1]
  IC50: 5.9 µg/mL (≈ 21.4 µM)
  HEp-2 (% inhibition): 78.67 ± 2.5%
GSK3β
  pIC50: 6.31
HEp-2 cells [3]
  Increase of NOx level compared to untreated cells: 19%
[4]
  Vero (% inhibition): 44.24 ± 2.8%
HEp-2 cells [5]
  Reduction in GSH content compared to untreated cells: 14%
CDK2/cyclin A
  pIC50: 5.61
CDK2/cyclin A; from IC50 values of Table 2
  Stronger inhibitory activity against CDK2/cyclin A compared with roscovitine: 1.3 fold

## CCN1C(=O)/C(=C\c2ccc(F)cc2)S/C1=N/N=C(\C)c1ccccn1 [9b, (E)-3-Ethyl-5-((E)-4-fluorobenzylidene)-2-(((E)-1-(pyridin-2-yl)ethylidene)hydrazono)thiazolidin-4-one]
[2]
  MCF-7 (% inhibition): 70.58 ± 1.8%

## C/C(=N\N=C1/NC(=O)/C(=C\c2ccc(Cl)cc2)S1)c1ccccn1 [10a, (E)-5-((E)-4-Chlorobenzylidene)-2-(((E)-1-(pyridin-2-yl)ethylidene)hydrazono)thiazolidin-4-one]
[2]
  MCF-7 (% inhibition): 71.32 ± 3.4%

## C/C(=N\N=c1/[nH]c(C)c(/N=N/c2ccc(C)cc2)s1)c1ccccn1 [13a, (E)-4-Methyl-2-(((E)-1-(pyridin-2-yl)ethylidene)hydrazono)-5-((E)-p-tolyldiazenyl)-2,3-dihydrothiazole]
[6]; Homo sapiens, HepG2, 48 h, read-out: IC50 against HepG2
  IC50: 9.5 µg/mL (≈ 27.1 µM)
[6]; single concentration 100 μg mL^−1, 48 h, SRB, mean ± SD
  HepG2 (% inhibition): 76.56 ± 1.3%
HepG2 cells [7]
  Increase of NOx level compared to untreated cells: 25%
HepG2 cells [8]
  Necrotic cells: 3.25%
GSK3β
  pIC50: 6.47
HepG2 cells [9]
  Reduction in GSH level compared to untreated cells: 33%
HepG2 cells [10]
  Cells in G0–G1 phase (%DIP G1): 59.62%
[4]
  Vero (% inhibition): 41.81 ± 2.3%
CDK2/cyclin A
  pIC50: 5.95
CDK2/cyclin A; from IC50 values of Table 2
  Stronger inhibitory activity against CDK2/cyclin A compared with roscovitine: 2.2 fold
